Values of other authors in US20040208833A1, “Novel fluticasone formulations” (Elan Pharma International Ltd., priority 2003, published 2004).

Key:
[1] = not given; remark: listed apart in the source
[2] = oral dosing of radiolabeled drug

**Q.** What does the source list for `CCC(=O)O[C@]1(C(=O)SCF)[C@H](C)C[C@H]2[C@@H]3C[C@H](F)C4=CC(=O)C=C[C@]4(C)[C@@]3(F)[C@@H](O)C[C@@]21C` [Fluticasone propionate, S-fluoromethyl-6α,9-difluoro-11β-hydroxy-16α-methyl-3-oxoandrosta-1,4-diene-17β-carbothioate, 17-propionate]?
**A.** solubility in 95% ethanol (95% ethanol): slightly soluble; solubility in dimethyl sulfoxide (dimethyl sulfoxide): freely soluble; solubility in dimethylformamide (dimethylformamide): freely soluble; solubility in methanol (methanol): slightly soluble; solubility in water (water): practically insoluble; oral systemic bioavailability ([1]; oral dosing of labeled and unlabeled conventional fluticasone propionate): < 1%; absorption [1, 2]: low; extraction from plasma [1, 2]: highly extracted from plasma; oral bioavailability [1, 2]: neglible
